Reference: ChEMBL document CHEMBL4813911 (J Med Chem, 2020)

Columns and labels:
[1] = molecular target: T1, Lysine-specific histone demethylase 2 (Homo sapiens, UniProt Q8NB78); test: Inhibition of LSD2 (unknown origin) using Lys4-dimethylated H3 (1-20) peptide as substrate incubated for 30 mins by peroxidase-coupled assay
T1 sequence (Q8NB78 whole entry): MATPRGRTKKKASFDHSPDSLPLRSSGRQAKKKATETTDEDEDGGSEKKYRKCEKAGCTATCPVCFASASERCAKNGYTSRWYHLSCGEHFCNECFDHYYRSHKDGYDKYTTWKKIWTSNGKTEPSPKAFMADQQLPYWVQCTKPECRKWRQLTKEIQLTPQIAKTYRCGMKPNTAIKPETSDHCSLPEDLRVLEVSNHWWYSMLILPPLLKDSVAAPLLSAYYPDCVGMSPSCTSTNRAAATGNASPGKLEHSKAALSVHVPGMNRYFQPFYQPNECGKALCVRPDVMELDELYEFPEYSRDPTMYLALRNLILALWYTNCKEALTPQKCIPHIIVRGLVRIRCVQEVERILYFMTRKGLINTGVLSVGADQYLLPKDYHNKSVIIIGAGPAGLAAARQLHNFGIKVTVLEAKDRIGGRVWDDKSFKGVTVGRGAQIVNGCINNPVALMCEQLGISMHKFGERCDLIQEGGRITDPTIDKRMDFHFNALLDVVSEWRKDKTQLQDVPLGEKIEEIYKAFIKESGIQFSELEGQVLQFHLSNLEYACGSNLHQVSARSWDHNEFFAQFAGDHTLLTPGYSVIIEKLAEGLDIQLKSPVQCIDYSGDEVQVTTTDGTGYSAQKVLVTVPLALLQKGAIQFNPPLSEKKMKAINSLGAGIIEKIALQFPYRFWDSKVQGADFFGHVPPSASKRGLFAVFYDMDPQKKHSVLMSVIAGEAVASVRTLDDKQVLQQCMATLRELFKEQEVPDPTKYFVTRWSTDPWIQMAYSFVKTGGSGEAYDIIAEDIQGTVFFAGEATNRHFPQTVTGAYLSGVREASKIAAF

[2] = molecular target: T2, Amine oxidase [flavin-containing] A (Homo sapiens, UniProt P21397); test: Inhibition of human MAO-A expressed in baculovirus infected BTI insect cells using tyramine as substrate incubated for 30 mins by peroxidase-coupled assay
T2 sequence (P21397 whole entry): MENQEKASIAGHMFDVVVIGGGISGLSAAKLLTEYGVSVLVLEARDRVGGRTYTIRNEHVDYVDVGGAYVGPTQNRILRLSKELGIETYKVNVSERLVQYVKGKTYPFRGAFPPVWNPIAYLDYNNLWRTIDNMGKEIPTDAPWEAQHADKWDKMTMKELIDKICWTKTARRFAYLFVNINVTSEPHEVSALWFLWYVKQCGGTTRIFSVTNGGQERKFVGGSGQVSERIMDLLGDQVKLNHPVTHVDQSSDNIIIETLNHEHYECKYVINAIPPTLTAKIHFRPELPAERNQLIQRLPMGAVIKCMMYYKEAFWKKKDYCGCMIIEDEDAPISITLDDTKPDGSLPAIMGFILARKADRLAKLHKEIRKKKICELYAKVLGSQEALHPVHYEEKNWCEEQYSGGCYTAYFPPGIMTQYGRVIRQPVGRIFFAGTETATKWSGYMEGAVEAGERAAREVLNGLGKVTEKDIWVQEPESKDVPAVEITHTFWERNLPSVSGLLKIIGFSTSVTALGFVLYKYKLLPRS

[3] = molecular target: T3, Amine oxidase [flavin-containing] B (Homo sapiens, UniProt P27338); test: biochemical
T3 sequence (P27338 whole entry): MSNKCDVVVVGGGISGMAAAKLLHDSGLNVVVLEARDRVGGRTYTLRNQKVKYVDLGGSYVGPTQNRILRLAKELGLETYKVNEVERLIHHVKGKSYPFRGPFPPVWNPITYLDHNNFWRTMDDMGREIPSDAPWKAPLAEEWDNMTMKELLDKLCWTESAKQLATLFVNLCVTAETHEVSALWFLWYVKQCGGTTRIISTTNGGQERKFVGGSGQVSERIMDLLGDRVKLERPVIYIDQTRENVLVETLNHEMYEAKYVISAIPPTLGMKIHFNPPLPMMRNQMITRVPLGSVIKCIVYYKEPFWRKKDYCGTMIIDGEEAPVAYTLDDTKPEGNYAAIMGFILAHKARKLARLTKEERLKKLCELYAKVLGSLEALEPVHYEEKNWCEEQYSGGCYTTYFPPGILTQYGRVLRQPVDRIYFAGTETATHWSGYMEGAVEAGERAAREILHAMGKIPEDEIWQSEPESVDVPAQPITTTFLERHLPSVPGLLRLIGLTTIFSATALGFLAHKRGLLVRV

HeLa = test: Antiproliferative activity against human HeLa cells after 48 hrs by MTT assay; assay type: functional
SH-SY5Y = test: Antiproliferative activity against human SH-SY5Y cells after 48 hrs by MTT assay; assay type: functional
[4] = molecular target: T2, Amine oxidase [flavin-containing] A; test: Inhibition of human MAO-A expressed in baculovirus infected BTI insect cells by fluorescence method
[5] = molecular target: T3, Amine oxidase [flavin-containing] B; test: Inhibition of human MAO-B expressed in baculovirus infected BTI insect cells by fluorescence method
LSD1/CoREST complex = LSD1/CoREST complex (Homo sapiens, UniProt O60341); test: Inhibition of LSD1/FLAG-tagged CoREST (unknown origin) expressed in HEK293F cells using diMeK4H3(1 to 21) as substrate preincubated for 5 mins followed by substrate addition measured for 5 mins by horseradish peroxidase-coupled assay
[6] = Inhibition of HDAC1/FLAG-tagged CoREST (unknown origin) expressed in HEK293F cells using p53 (379 to 382 residues) (RHKK(Ac) as substrate incubated for 30 mins by fluorescence method; set-up: species or system Homo sapiens
[7] = Antiproliferative activity against human SCCIC1 cells after 72 hrs by [3H] thymidine incorporation assay; assay type: functional, cell-based
[8] = Antiproliferative activity against human MET-1 cells after 72 hrs by [3H] thymidine incorporation assay; assay type: functional, cell-based
HCT-116 = test: Antiproliferative activity against human HCT116 cells after 48 hrs by MTT assay; assay type: functional
PC-3 = test: Antiproliferative activity against human PC-3 cells after 48 hrs by MTT assay; assay type: functional
KYSE-150 cell line = test: Antiproliferative activity against human KYSE150 cells after 48 hrs by MTT assay; assay type: functional
[9] = molecular target: T2, Amine oxidase [flavin-containing] A; test: Inhibition of MAO-A (unknown origin) preincubated for 20 mins using 5-hydroxytryptamine as substrate followed by substrate addition and measured after 60 mins
[10] = molecular target: T3, Amine oxidase [flavin-containing] B; test: Inhibition of MAO-B (unknown origin) using benzylamine as substrate preincubated for 20 mins followed by substrate addition and measured after 60 mins
MV4-11 = test: Antiproliferative activity against human MV4-11 cells incubated for 6 days by MTS assay; assay type: functional, cell-based; conditions: MV4-11, 144 h
[11] = molecular target: T2, Amine oxidase [flavin-containing] A; test: biochemical
[12] = molecular target: T2, Amine oxidase [flavin-containing] A; test: Inhibition of human MAO-A expressed in expressed in baculovirus infected BTI insect cells using tyramine as substrate by peroxidase-coupled method
[13] = molecular target: T3, Amine oxidase [flavin-containing] B; test: biochemical; remark: listed apart in the source

SMILES	GI50 (HeLa)	GI50 (SH-SY5Y)	IC50 [4]	IC50 [5]	other results
NC1CC1c1cc(F)cc(F)c1OCc1ccccc1 (configuration not stated)	–	–	–	–	Ki [1]: > 250 µM; Ki [2]: 71 µM; Ki [3]: 33 µM
O=C(N[C@@H](CCCCNC1CC1c1ccccc1)C(=O)NCc1cccc(C(F)(F)F)c1)c1ccc(-c2ccccc2)cc1 (some centres not stated)	4.1 µM	2.4 µM	–	–	–
O=C(N[C@@H](CCCCNC1CC1c1ccccc1)C(=O)NCc1ccccc1)c1ccccc1 (some centres not stated)	35 µM	17 µM	–	–	–
Nc1ccccc1NC(=O)c1ccc(CCCC(=O)Nc2ccc(C3CC3N)cc2)cc1 (configuration not stated)	–	–	–	–	IC50 (LSD1/CoREST complex): 1.8 µM; IC50 [6]: 0.23 µM; IC50 [7]: 0.041 µM; IC50 [8]: 0.006 µM
CCN(CC)S(=O)(=O)c1ccc([C@H]2C[C@@H]2NCc2ccccc2)cc1	–	–	–	–	IC50 [9]: 0.525 µM; IC50 [10]: 0.702 µM; IC50 (MV4-11): 15.4 µM
O=C(N[C@@H](CCCCNC1CC1c1ccccc1)C(=O)NCc1ccccc1)c1ccc(-c2ccccc2)cc1 (some centres not stated)	10 µM	> 3.3 µM	–	–	IC50 [11]: 87 µM
NC1CC1c1c(F)c(F)c(F)c(F)c1F (configuration not stated)	–	–	–	–	Ki [12]: 270 µM; Ki [13]: 8.3 µM

More lines, main results first:

GI50 (HeLa)	GI50 (SH-SY5Y)	IC50 [4]	IC50 [5]	SMILES	other results
–	–	5.9 µM	12 µM	COc1ccccc1CNC1CC12CCc1ccccc12 (configuration not stated)	–
–	–	5 µM	7 µM	COc1ccc(CNC2CC23CCc2ccccc23)c(Cl)c1OC (configuration not stated)	–
6 µM	6 µM	–	–	NC1CC1c1cccc(OCC[C@H](NC(=O)c2ccccc2)C(=O)NCc2ccccc2)c1 (some centres not stated)	GI50 (HCT-116): 6 µM; GI50 (PC-3): 6 µM; GI50 (KYSE-150 cell line): 6 µM
–	–	2.5 µM	32 µM	Fc1ccccc1CNC1CC12CCc1ccccc12 (configuration not stated)	–
–	–	3.7 µM	1.2 µM	COc1ccc(Br)cc1CNC1CC12CCc1ccccc12 (configuration not stated)	–
